The values that follow are results of earlier work, collected in patent US20250090614A1, “COMPOSITIONS AND METHODS FOR IMPROVING LUNG FUNCTION” (priority 2023, published 2025).

Data set [1] concerns Idiopathic pulmonary fibrosis (IPF). The following applies: Dasatinib and Quercetin given together, pilot study, Justice et al. 2019; cited from earlier work.
In data set [2] the test system is senescent lung cells. Conditions: mouse model, Palazzo et al. 2023; cited from earlier work.

Each structure is given as a SMILES string.

As for `O=c1c(O)c(-c2ccc(O)c(O)c2)oc2cc(O)cc(O)c12` [Quercetin], in data set [1], the “physical dysfunction in Idiopathic pulmonary fibrosis (IPF)” value is listed as “showed promise”.
For `COC(=O)C1=C(C)NC(C)=C(C(=O)OC2CCCN(Cc3ccccc3)C2)C1c1cccc([N+](=O)[O-])c1` (stereo not drawn) [Benidipine], in data set [2], the lung emphysema result is reported as “ameliorates” and the senescent lung cells result is listed as “decrease”.
